# Entries after “also recorded” stand apart in the source; their conditions may differ.
# Legend:
# Rat hippocampal neurons = experiment: Amyloid-beta toxicity in rat hippocampal neurons, ATP assay; type: cell-based; settings: Aβ25-35, 48 or 72 hours
# Experimental: Viability was determined using an ATP assay. Similar results were also obtained using Aβ1-42.
# BALB/c 3T3 cells = experiment: CICD of BALB/c 3T3 cells induced by TNFα/zVAD.fmk; type: cell-based, mouse
# Jurkat cells = experiment: Apoptosis of Jurkat cells induced by FasL without or with cycloheximide; type: cell-based, human; settings: FasL or FasL/CHX, no zVAD
# Experimental: Jurkat cells were treated with 5 ng/ml of FasL without (A) or with cyclohexamide (CHX) (B) to induce apoptosis, or 5 ng/ml FasL, 1 μg/ml of CHX and 100 μM of zVAD.fmk to induce CICD (B). […] Cell viability was determined after 24 hours of incubation with indicated reagents using CellTiter-Glo ATP assay. The values represent viability relative to the control Jurkat cells without the treatment of FasL, which was set as 100% viability.
# Cells were stained with DiOC6 or annexin V and EGFP-PI as described in FIG. 26A and FIG. 26B. […] Cell viability was determined by an ATP assay. Numbers represent viability normalized to that of the compound-treated cells in the absence of TNFα. […]
# We seeded cells in 96-well plates (white plates for luminescent assays; black plates for fluorescent assays; clear plates for MTT assay) at the density of 5,000-10,000 cells per well for adherent cells or 20,000-50,000 cells per well for suspension cells in 100 μl of the appropriate phenol red-free media. After incubation, we determined cell viability using one of the following methods. For the ATP assay, we used luminescence-based commercial kits (CellTiter-Glo, Promega or ATPLite-M, PerkinElmer) and analyzed luminescence using a Wallac Victor II plate reader (PerkinElmer). For Sytox assay, we incubated cells with 1 μM Sytox Green reagent for thirty minutes at 37° C., and then performed fluorescent reading. […]
# [1] = system: Jurkat cells expressing dimerizable FADD; settings: dimerizer and zVAD.fmk, 48 hours
# CD8+ cells = experiment: Activation and proliferation of CD8+ cytotoxic T lymphocytes (CTL) suppressed by zVAD.fmk; type: cell-based, mouse; settings: 100 μM zVAD.fmk, 30 μM compound
# Experimental: Numbers of cells were determined using FACS analyses. Cell numbers are normalized to the number of cells in unstimulated control, which was set as 100%. […] Cells were stained with αCD8^+-FITC antibody (Pharmingen) and CD8^+ cell numbers were determined by FACS. Cell numbers are normalized to the number of cells in unstimulated control, which was set as 100%. Percentages of dead cells (line) was determined by co-staining cells with propidium iodide.
# Values represent fold increase over unstimulated control.
# Cells were stained with αCD8^+-FITC antibody (Pharmingen), and CD8^+ cell numbers were determined by FACS. Cell numbers are normalized to the number of cells in unstimulated control, which was set as 100%. Percentages of dead cells (line) were determined by co-staining cells with propidium iodide.
substance,measurement,setting,value
methylthiohydantoin-tryptophane [Nec-1],"attenuation of amyloid-beta toxicity in hippocampal neurons, in words",Rat hippocampal neurons,protection by Nec-1 from amyloid-beta toxicity; also recorded: attenuation of the aggregated amyloid-beta peptide (Aβ) toxicity in primary rat hippocampal neurons
same,"inhibition of CICD in 3T3 cells, in words",BALB/c 3T3 cells,inhibited all published examples of necrotic cell death induced by DR activation in the presence of caspase inhibitors
same,"protection from apoptosis, in words",Jurkat cells,but not apoptosis induced by FasL or FasL/CHX; also recorded: lack of cytoprotection by Nec-1 in apoptotic Jurkat cells treated with FasL-CHX for 24 hours; also recorded: but not by Nec-1; also recorded: could not be inhibited by Nec-1; also recorded: had no effect on FasL-CHX-induced accumulation of annexin V-positive and propidium iodide (PI)-negative cells
same,"inhibition of necrotic death, in words",[1],inhibited all published examples of necrotic cell death induced by DR activation in the presence of caspase inhibitors
same,"restoration of CTL activation/proliferation suppressed by zVAD.fmk, in words",CD8+ cells,restores normal activation of CTLs inhibited by caspase inhibition; also recorded: restoration of CTL proliferation by Nec-1; also recorded: completely suppressed by Nec-1; also recorded: suppression of cell proliferation was prevented in the presence of Nec-1
